In PMC9295122, “Sialic Acid Derivatives Inhibit SiaT Transporters and Delay Bacterial Growth” (ACS Chemical Biology, 2022):

Experiments:
P. mirabilis HI4320 = experiment: Growth in carbon-limited MM with inhibitor only, P. mirabilis; assay type: cell-based, Proteus mirabilis; details: MM with sodium citrate, compound 0.5 mM
Method: We first addressed whether these bacteria were able to catabolize the inhibitors and potentially use them as a carbon source for growth. Each strain was grown in carbon-limited defined minimal media (MM), without any carbon source other than sodium citrate for P. mirabilis and casamino acids for S. aureus, and supplemented with 3e and 3f. […] With these promising results, bacterial growth assays were performed in MM supplemented with Neu5Ac at a concentration of 3.2 mM and with 0.5 mM of compounds 3e and 3f (Figure 6a,b). The lag phase duration was determined as the time for the initial population density to increase twofold (see the horizontal dashed lines in Figure 6a,b). The effects were significant in the case of S. aureus, where a delayed growth of 4.4 and 9.4 h (P < 0.001) for compounds 3e and 3f, respectively, was observed. In the case of P. mirabilis, compound 3e indicated a delay in growth (3 h, P = 0.06), while no effect was recorded for compound 3f.
Figure S4. S. aureus COL (A) and P. mirabilis HI4320 (B) grown in defined carbon-limited minimal media (dotted line), with the addition of compound 3e (0.5 mM, solid line) or compound 3f (0.5 mM, dashed line). Average values of two biological replicates (n=2) each including two technical replicates are presented.
(1 picture or pasted object on this page, not shown here)

SaSiaT = SaSiaT (Staphylococcus aureus, UniProt A0A0H2XJ46); experiment: [3H]Neu5Ac efflux in proteoliposomes, SaSiaT; assay type: biochemical; details: 0.1 mM external compound
Chain of SaSiaT (A0A0H2XJ46 entry or part of it): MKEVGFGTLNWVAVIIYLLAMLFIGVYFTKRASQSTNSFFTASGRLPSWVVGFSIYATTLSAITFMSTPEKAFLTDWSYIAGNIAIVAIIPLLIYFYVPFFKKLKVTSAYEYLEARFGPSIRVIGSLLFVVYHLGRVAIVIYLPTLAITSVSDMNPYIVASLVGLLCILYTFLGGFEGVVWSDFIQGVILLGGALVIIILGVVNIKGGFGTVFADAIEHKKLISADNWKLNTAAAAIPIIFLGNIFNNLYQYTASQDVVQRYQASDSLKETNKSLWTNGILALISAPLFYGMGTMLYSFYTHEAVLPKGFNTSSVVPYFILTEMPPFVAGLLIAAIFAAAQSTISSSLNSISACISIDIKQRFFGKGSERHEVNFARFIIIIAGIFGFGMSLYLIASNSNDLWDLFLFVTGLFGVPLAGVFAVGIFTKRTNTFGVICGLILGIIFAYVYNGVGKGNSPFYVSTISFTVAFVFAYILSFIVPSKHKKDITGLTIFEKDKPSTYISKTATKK
Method: Figure 5 Kinetic analysis of the inhibition of recombinant SiaT from P. mirabilis (A,B) and S. aureus (C,D) reconstituted in proteoliposomes and [^3H]Neu5Ac efflux in proteoliposomes (E,F). (a–d) Data were plotted according to Lineweaver–Burk as a reciprocal transport rate vs reciprocal Neu5Ac concentration. The transport rate was measured, in 5 min, by adding [^3H] Neu5Ac at the indicated concentrations to proteoliposomes containing 20 mM K^+-gluconate in the presence of valinomycin as described in the Supporting Information. [(A,B) P. mirabilis SiaT]; (A) compound 3f 0.25 μM (●) or 0.75 μM (□) was added in comparison to samples without inhibitor (○). […] Data are calculated as the percent of residual activity with respect to the control sample (efflux time zero). […]
For uptake experiments, 600 μL of proteoliposomes were loaded onto a Sephadex G-75 column (0.7 cm diameter × 15 cm height), pre-equilibrated with 20 mM Hepes Tris pH 7.0 with 40 mM sucrose to balance the internal osmolarity. […] For kinetic measurement, the initial transport rate was measured by stopping the reaction after 5 min, that is, within the initial linear range of [^3H]-Neu5Ac uptake into the proteoliposomes previously described. […] Proteoliposomes were eluted with 1 mL of 50 mM NaCl and collected in a 4 mL of scintillation mixture, vortexed and counted.

Row | SMILES | ability to catabolize compound (growth vs MM only) (P. mirabilis HI4320) | [3H]Neu5Ac efflux induced (SaSiaT)
1 | CC(=O)NC1C(OCc2cc(F)cc(F)c2)CC(O)(C(=O)O)OC1C(O)C(O)CO (stereo not shown) [Compound 3e] | no ability to catabolize | to the same extent as Neu5Ac
2 | CC(=O)NC1C(OCc2cc(Br)cc(Br)c2)CC(O)(C(=O)O)OC1C(O)C(O)CO (stereo not shown) [Compound 3f] | no ability to catabolize | negligible
